What was measured:
[1] = target: T1, GluR3 L507Y (Rattus norvegicus, UniProt P19492, L507Y); assay: Responses to quisqualate and AMPA and effect of cyclothiazide (outside-out patch); format: cell-based
T1 construct: expressed in transfected cells; host or cells: HEK293, transient, pCDNA3

[2] = target: T2, R6TM1R3(Y521L) (Rattus norvegicus, UniProt P19492+P42260, A582S/A630S/C576V/C595R/D598Q/D600P/D669E/D672E/E603P/E625D/E665V/E681A/F612L/G615S/H593E/I581V/I639V/INS589HLED/INS599P/K629R/K679E/L568V/L569F/L572I/L608I/L609F/L619F/L626I/M627S/N596D/N605E/P592E/S624C/T607G/T633G/V580L/V601D/V602P/V616L/Y521L/Y566C/Y590N); assay: Responses to kainate and effect of cyclothiazide (outside-out patch); format: cell-based; details: glutamate evoked current in the presence of 100 µM cyclothiazide
T2 construct: the entire extracellular N-terminal region of GluR3flip was substituted by the corresponding region of GluR6; expressed in transfected cells; host or cells: HEK293, transient
T2 sequence (P42260+P19492 fused with the stated changes): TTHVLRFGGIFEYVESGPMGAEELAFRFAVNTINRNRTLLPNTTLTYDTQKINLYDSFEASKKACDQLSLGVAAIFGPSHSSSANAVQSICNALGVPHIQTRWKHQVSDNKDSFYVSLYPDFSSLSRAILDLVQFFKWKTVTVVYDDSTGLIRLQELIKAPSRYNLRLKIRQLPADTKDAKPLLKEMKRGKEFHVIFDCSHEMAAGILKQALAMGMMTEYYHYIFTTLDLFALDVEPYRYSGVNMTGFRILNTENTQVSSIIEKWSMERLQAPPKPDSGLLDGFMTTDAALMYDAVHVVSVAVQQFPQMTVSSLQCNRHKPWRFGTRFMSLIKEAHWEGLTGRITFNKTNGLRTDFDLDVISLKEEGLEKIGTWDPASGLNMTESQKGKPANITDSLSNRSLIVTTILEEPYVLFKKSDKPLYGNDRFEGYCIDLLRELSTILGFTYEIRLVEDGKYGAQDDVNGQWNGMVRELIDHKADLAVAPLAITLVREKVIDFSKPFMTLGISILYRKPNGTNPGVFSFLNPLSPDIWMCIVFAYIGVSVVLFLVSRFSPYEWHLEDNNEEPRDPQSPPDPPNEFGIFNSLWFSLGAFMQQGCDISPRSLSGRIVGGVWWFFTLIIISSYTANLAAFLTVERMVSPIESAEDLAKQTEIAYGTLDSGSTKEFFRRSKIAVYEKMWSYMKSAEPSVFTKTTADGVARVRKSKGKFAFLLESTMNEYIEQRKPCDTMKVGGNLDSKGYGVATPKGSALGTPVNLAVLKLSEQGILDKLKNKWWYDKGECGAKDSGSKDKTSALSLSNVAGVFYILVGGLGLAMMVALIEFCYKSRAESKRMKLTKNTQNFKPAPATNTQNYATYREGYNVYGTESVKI

[3] = target: T3, GluR3flip (Rattus norvegicus, UniProt P19492); assay: Block of desensitization by cyclothiazide added to the agonist solution (outside-out patch); format: cell-based; details: cyclothiazide 100µM added to the agonist solution (10 mM glutamate)
T3 construct: expressed in transfected cells; host or cells: HEK293 (ATCC CRL 1573), transient, pcDNA3
T3 sequence (P19492 23-888 isoform P19492-2 limits assumed): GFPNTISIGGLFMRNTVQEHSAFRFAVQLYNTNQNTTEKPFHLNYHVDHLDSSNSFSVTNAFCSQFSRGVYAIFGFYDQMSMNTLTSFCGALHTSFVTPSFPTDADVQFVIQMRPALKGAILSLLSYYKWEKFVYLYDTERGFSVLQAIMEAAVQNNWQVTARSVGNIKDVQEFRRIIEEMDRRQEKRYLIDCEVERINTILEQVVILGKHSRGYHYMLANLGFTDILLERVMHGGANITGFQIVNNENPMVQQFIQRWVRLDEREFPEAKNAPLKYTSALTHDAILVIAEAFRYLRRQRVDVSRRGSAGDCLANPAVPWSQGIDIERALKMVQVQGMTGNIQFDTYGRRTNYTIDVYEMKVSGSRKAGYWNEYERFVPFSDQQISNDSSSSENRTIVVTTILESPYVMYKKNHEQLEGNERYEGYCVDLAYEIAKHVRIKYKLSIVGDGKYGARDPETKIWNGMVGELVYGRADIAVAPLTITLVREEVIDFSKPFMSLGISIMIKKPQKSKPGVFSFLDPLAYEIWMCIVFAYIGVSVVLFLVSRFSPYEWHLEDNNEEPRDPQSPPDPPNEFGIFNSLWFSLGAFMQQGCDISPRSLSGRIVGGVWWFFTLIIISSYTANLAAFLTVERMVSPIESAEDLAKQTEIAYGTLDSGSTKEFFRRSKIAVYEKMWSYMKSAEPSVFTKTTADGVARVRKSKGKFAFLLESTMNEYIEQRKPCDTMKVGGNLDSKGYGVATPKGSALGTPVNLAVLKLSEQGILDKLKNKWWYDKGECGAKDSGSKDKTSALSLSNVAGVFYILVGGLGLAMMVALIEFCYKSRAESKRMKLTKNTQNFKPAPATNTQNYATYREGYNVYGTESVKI

[4] = tested on: T504A, E511K or their combined exchange; format: cell-based, rat
[5] = tested on: R3(R6S1); assay: Effect of cyclothiazide on the peak response to glutamate (outside-out patch); format: cell-based, rat; details: 100 µM cyclothiazide added to the agonist solution, n=10
[6] = target: T4, R6TM1R3 (Rattus norvegicus, UniProt P19492+P42260, A582S/A630S/C576V/C595R/D598Q/D600P/D669E/D672E/E603P/E625D/E665V/E681A/F612L/G615S/H593E/I581V/I639V/INS589HLED/INS599P/K629R/K679E/L568V/L569F/L572I/L608I/L609F/L619F/L626I/M627S/N596D/N605E/P592E/S624C/T607G/T633G/V580L/V601D/V602P/V616L/Y566C/Y590N); assay: as above; format: cell-based; details: 100 µM cyclothiazide added to the agonist solution, n=13
T4 construct: the entire extracellular N-terminal region of GluR3flip was substituted by the corresponding region of GluR6; expressed in transfected cells; host or cells: HEK293, transient
T4 sequence (P42260+P19492 fused with the stated changes): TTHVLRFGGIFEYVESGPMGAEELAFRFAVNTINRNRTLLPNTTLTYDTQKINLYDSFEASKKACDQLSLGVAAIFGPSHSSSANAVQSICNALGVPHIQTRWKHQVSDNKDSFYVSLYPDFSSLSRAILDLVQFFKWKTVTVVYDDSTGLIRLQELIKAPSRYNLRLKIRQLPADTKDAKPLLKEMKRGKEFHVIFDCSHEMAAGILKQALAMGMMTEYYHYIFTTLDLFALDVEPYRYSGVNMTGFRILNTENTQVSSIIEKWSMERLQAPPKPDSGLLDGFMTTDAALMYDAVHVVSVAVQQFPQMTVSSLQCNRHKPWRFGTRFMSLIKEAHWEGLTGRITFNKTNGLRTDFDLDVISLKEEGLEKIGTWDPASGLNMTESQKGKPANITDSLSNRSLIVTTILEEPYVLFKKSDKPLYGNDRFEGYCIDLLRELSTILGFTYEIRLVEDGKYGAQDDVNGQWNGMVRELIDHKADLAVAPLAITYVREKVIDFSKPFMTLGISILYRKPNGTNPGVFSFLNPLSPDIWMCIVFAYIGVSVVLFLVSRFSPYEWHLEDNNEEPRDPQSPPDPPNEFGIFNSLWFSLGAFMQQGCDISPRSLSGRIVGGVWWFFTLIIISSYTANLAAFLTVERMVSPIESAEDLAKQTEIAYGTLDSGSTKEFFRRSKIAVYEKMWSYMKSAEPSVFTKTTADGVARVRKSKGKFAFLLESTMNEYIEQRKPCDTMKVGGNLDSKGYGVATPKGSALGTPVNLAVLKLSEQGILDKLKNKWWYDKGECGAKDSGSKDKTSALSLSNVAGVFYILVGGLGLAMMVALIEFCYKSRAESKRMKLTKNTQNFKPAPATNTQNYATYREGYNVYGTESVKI

[7] = tested on: GluR3-S1 chimeras; assay: Responses to saturating kainate concentrations compared with glutamate (outside-out patch); format: cell-based, rat; details: saturating kainate concentrations (5-10 mM)

T1 sequence (P19492 23-888 isoform P19492-2 L507Y limits assumed): as the sequence (P19492 23-888 isoform P19492-2 limits assumed) above, with L485Y counted along it

Cc1onc(O)c1CC(N)C(=O)O (racemic) [AMPA, (RS)-alpha-amino-3-hydroxy-5-methyl-4-isoxazoleepropionic acid]
P/S ([1]; agonist 1 mM): 1.05±0.03 | efficacy of opening, ratio glutamate/agonist ([1]; n=7): 0.97±0.03

NS(=O)(=O)c1cc2c(cc1Cl)NC(C1CC3C=CC1C3)NS2(=O)=O (stereo not drawn) [cyclothiazide]
effect on desensitization (result in words) [2]: Desensitization was blocked | P/S values [3]: ~1 | reduction of peak response ([1]; cyclothiazide (100 µM)): 9.6±2.7% | effect on desensitization (result in words) [4]: completely blocked | inhibition of the peak response [5]: 12±3% | inhibition at 100 µM [6]: 14 ± 4%

C=C(C)[C@H]1CN[C@H](C(=O)O)[C@H]1CC(=O)O [kainate]
desensitization of responses (result in words) [7]: essentially non-desensitizing
